Patent US12077503B2, “Substituted cyclic amides and their use as herbicides” (FMC CORPORATION, priority 2015, dated 2024)

Legend:
corn (Zea mays) = experiment: Test G Post-Emergence Protocol; type: in vivo
Description: (§1) Seeds of corn (Zea mays), giant foxtail (Setaria faberi), barnyardgrass (Echinochloa crus-galli), ivy-leaved morning glory (Ipomoea hederacea), redroot pigweed (Amaranthus retroflexus) and velvetleaf (Abutilon theophrasti) were sown in standard soil in pots. After cultivation for 8 days under controlled conditions in a glasshouse (at 24/16° C., day/night; 14 hours light; 65% humidity), the plants were sprayed with an aqueous spray solution derived from the formulation of the technical active ingredient in acetone/water (50:50) solution containing 0.5% Tween 20 (polyoxyethylene sorbitan monolaurate, CAS RN 9005-64-5) to give a final dose of 15.625, 62.5 or 250 g/ha of test compound.
(§2) The test plants were then grown on under controlled conditions in a glasshouse (at 24/16° C., day/night; 14 hours light; 65% humidity) and watered twice daily. After 13 days the test was evaluated (100=total damage to plant; 0=no damage to plant). A dash (-) means no test result.

[1] = tested on: ivy-leaved morning glory (Ipomoea hederacea); experiment: Test G Post-Emergence Protocol; type: in vivo
Description: as §1, §2

[2] = 15.625 g ai/ha, evaluated after 13 days (100=total damage to plant; 0=no damage to plant)
[3] = 62.5 g ai/ha, evaluated after 13 days
[4] = 250 g ai/ha, evaluated after 13 days

CN1C[C@H](c2cccc(C(F)(F)F)c2)[C@@H](C(=O)Nc2cccnc2F)C1=O [Compound 1397]
plant injury at 15.625 g/ha (corn (Zea mays); Zea mays, post-emergence, 312 h, 15.625 g ai/ha, evaluated after 13 days (100=total damage to plant; 0=no damage to plant), read-out: Corn damage rating): 80% | plant injury at 62.5 g/ha (corn (Zea mays); Zea mays, post-emergence, 312 h, 62.5 g ai/ha, evaluated after 13 days, read-out: Corn damage rating (100=total damage to plant; 0=no damage to plant)): 80% | plant injury at 250 g/ha (corn (Zea mays); Zea mays, post-emergence, 312 h, 250 g ai/ha, evaluated after 13 days, read-out: damage to plant, Corn (100=total damage to plant; 0=no damage to plant)): 80% | pest or weed control at 15.625 g/ha ([1]; Ipomoea, post-emergence, 312 h, 15.625 g ai/ha, evaluated after 13 days (100=total damage to plant; 0=no damage to plant), read-out: Morningglory, Ivy-leaved damage rating): 60% | pest or weed control at 62.5 g/ha ([1]; Ipomoea, post-emergence, 312 h, 62.5 g ai/ha, evaluated after 13 days, read-out: Morningglory, Ivy-leaved damage rating (100=total damage to plant; 0=no damage to plant)): 60% | pest or weed control at 250 g/ha ([1]; Ipomoea, post-emergence, 312 h, 250 g ai/ha, evaluated after 13 days, read-out: damage to plant, Morningglory, Ivy-leaved (100=total damage to plant; 0=no damage to plant)): 70%

CN1C[C@H](c2ccc(C(F)(F)F)cc2)[C@@H](C(=O)Nc2cccc(F)n2)C1=O [Compound 1400]
Corn damage rating (corn (Zea mays); [2]): 10 | Corn damage rating (100=total damage to plant; 0=no damage to plant) (corn (Zea mays); [3]): 20 | damage to plant, Corn (100=total damage to plant; 0=no damage to plant) (corn (Zea mays); [4]): 60 | Morningglory, Ivy-leaved damage rating [1, 2]: 0 | Morningglory, Ivy-leaved damage rating (100=total damage to plant; 0=no damage to plant) [1, 3]: 0 | damage to plant, Morningglory, Ivy-leaved (100=total damage to plant; 0=no damage to plant) [1, 4]: 0
